Assay results from PubChem BioAssay (NCI).
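Cells were grown in 96-well plates and exposed to each compound for 48 hours at five concentrations; endpoints were interpolated linearly between bracketing concentrations, or set to the highest concentration if not reached. GI50: concentration for 50% inhibition of growth. The concentration for full growth arrest is given as TGI.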

Experiments:
Assay in all cases: NCI anticancer screen, dose series, 48 h
HCT-116 colon = tested on: HCT-116 colon
PC-3 prostate = tested on: PC-3 prostate
CCRF-CEM leukemia = tested on: CCRF-CEM leukemia
CAKI-1 renal = tested on: CAKI-1 renal
K-562 leukemia = tested on: K-562 leukemia

**Q.** For `C=CCN(CC=C)C(=O)[C@H](CC)[C@@H]1CC[C@@H](C)[C@@H]([C@H](C)[C@@H](O)[C@@H](C)C(=O)[C@H](CC)C2O[C@]3(C=CC(=O)[C@]4(CC[C@@](C)([C@H]5CC[C@](O)(CC)[C@H](C)O5)O4)O3)[C@H](C)C[C@@H]2C)O1` (stereo not given in full), which GI50 (HCT-116 colon) is on record?
**A.** The GI50 was 2760 nM.

**Q.** What about the TGI (HCT-116 colon) of the same molecule?
**A.** The TGI was greater than 100000 nM.

**Q.** What about the GI50 (PC-3 prostate) of the same molecule?
**A.** Its GI50 is 2020 nM.

**Q.** And the TGI (PC-3 prostate)?
**A.** The TGI was greater than 100000 nM.

**Q.** What about the GI50 (CCRF-CEM leukemia) of the same molecule?
**A.** Its GI50 is 2650 nM.

**Q.** What about the TGI (CCRF-CEM leukemia) of the same molecule?
**A.** The TGI was greater than 100000 nM.

**Q.** What about the GI50 (CAKI-1 renal) of the same molecule?
**A.** Its GI50 is 1960 nM.

**Q.** And the TGI (CAKI-1 renal)?
**A.** The TGI was greater than 100000 nM.

**Q.** What about the GI50 (K-562 leukemia) of the same molecule?
**A.** The GI50 was 2310 nM.

**Q.** And the TGI (K-562 leukemia)?
**A.** The TGI was greater than 100000 nM.
